Source: patent US5681604A, “Stain-inhibiting agent for dyes with affinity for protonatable nitrogen, compositions containing same and uses thereof” (priority 1993, dated 1997)

What was measured:
[1] = Stain inhibition: 66 nylon yarn immersed in F, D & C Red 40 / citric acid staining solution
Procedure: 3. […] A second yarn sample, Sample 2B, was immersed in staining/stain-inhibitor solution, Solution B, also for one minute. Both samples were then dried for 24 hours.
2. […] Thus, Solution 3B was prepared by adding 100 ppm of the ECG to Solution 3A.

[2] = Stain-inhibiting activity (general statements)
[3] = tested on: mice; conditions: oral, in mice; cited from earlier work
[4] = Stain inhibition: 66 nylon carpet soaked in cherry KOOL-AID solution; conditions: for AATCC Staining Scale Rating: 1 min soak, dried 24 h; for CIE L / CIE a / CIE b: Minolta Chromameter
Procedure: (§1) Each solution was prepared by mixing 1 gram of the KOOL-AID® powder with enough water to make 450 to 500 cm^3 of solution.
(§2) Solution 1A: prepared as set forth above, no sugar added.
(§3) Solution 1B: Solution 1A+50 parts per million (ppm) tannic acid (certified, Fisher Scientific Co.).
(§4) Solution 1C: Solution 1A+200 ppm tannic acid (same tannic acid as in Solution 1B, hereafter "TA").
(§5) After the solutions were prepared, four 1 in^2 (6.45 cm^2) samples (Carpet Samples 1A, 1B, 1C, and Control) were cut from twisted, heat-set 66 nylon carpet, mock-acid dyed, and four 1-gram samples of 66 nylon skein (Test Fabrics, Middlesex, N.J.) were obtained (Yarn Samples 1A, 1B, 1C, and Control). Carpet Samples 1A, 1B, and 1C were soaked in 50 ml. of Solutions 1A, 1B, and 1C, respectively, for 1 minute, and allowed to dry for 24 hours. The Carpet Control Sample was not exposed to any of the solutions. The same procedure was followed with Yarn Samples 1A, 1B, 1C, and Control. (The carpet and skeins had been scoured in 0.1% non-ionic detergent to remove surface grease and finish.)
(§6) All samples were rinsed thoroughly in distilled water, and allowed to dry.
(§7) The amount of staining on each sample was evaluated by comparison with the AATCC Staining Scale (AATCC Test Method, 175-1991), and by the CIE L, a, b values obtained from the Minolta Chromameter.

[5] = Titration with NaOH; assay type: physicochemical
[6] = Stain inhibition: 66 nylon skein (yarn) soaked in cherry KOOL-AID solution; conditions: for AATCC Staining Scale Rating: 1 min soak, dried 24 h; for CIE L / CIE a / CIE b: Minolta Chromameter
Procedure: as §1, §2, §3, §4, §5, §6, §7

[7] = commercially-available tannic acid from natural sources; cited from earlier work
[8] = 50 ppm TA in cherry KOOL-AID solution
[9] = 200 ppm TA in cherry KOOL-AID solution

Question: What does the source list for O=C(O[C@@H]1Cc2c(O)cc(O)cc2O[C@@H]1c1ccc(O)c(O)c1)c1cc(O)c(O)c(O)c1 [ECG, Epicatechin gallate]?
Answer: AATCC ([1]; 100 ppm ECG in Red 40 staining solution pH 2.8, 1 min): 7; CIE L ([1]; 100 ppm ECG, Chromameter): 81; CIE a ([1]; 100 ppm ECG, Chromameter): 4; CIE b ([1]; 100 ppm ECG, Chromameter): 2

Question: With Oc1cccc(O)c1 [resorcinol] as the molecule, how does the stain-inhibiting activity [2] read?
Answer: Its stain-inhibiting activity is “do not appear to exhibit stain-inhibiting activity”.

Question: Which results are given for O=C(OC[C@H]1O[C@@H](OC(=O)c2cc(O)c(O)c(OC(=O)c3cc(O)c(O)c(O)c3)c2)[C@H](OC(=O)c2cc(O)c(O)c(OC(=O)c3cc(O)c(O)c(O)c3)c2)[C@@H](OC(=O)c2cc(O)c(O)c(OC(=O)c3cc(O)c(O)c(O)c3)c2)[C@@H]1OC(=O)c1cc(O)c(O)c(OC(=O)c2cc(O)c(O)c(O)c2)c1)c1cc(O)c(O)c(OC(=O)c2cc(O)c(O)c(O)c2)c1 [TA, tannic acid]?
Answer: LD50 [3]: 6000 mg/kg; AATCC Staining Scale Rating [4, 8]: 6; CIE L ([4]; 50 ppm TA): 78; CIE a ([4]; 50 ppm TA): 9; CIE b ([4]; 50 ppm TA): 3; AATCC Staining Scale Rating [4, 9]: 10; CIE L ([4]; 200 ppm TA): 83; CIE a ([4]; 200 ppm TA): 0.8; CIE b ([4]; 200 ppm TA): 2; inflection point pH when titrated with NaOH [5]: about 4.5; AATCC Staining Scale Rating [6, 8]: 7; CIE L ([6]; 50 ppm TA): 81; CIE a ([6]; 50 ppm TA): 12; CIE b ([6]; 50 ppm TA): 4; AATCC Staining Scale Rating [6, 9]: 9; CIE L ([6]; 200 ppm TA): 83; CIE a ([6]; 200 ppm TA): 8; CIE b ([6]; 200 ppm TA): 4; water solubility [7]: water soluble

Question: With Oc1cccc(O)c1O [pyrogallol] as the molecule, how does the stain-inhibiting activity [2] read?
Answer: Its stain-inhibiting activity is “do not appear to exhibit stain-inhibiting activity”.
